From the supplement of paper PMC13380429

Key:
Details in all cases: 72 h
U2OS [1] = assay: relative viability EC50 (midpoint between 100% and the lowest measured viability); higher = less toxic
HepG2 [2] = assay: as above
Caco-2 [3] = assay: as above
Calu-3 [4] = assay: cell viability relative to DMSO; higher = less toxic
U2OS [5] = assay: as above
Vero E6 [6] = assay: as above
HepG2 [7] = assay: as above
Caco-2 [8] = assay: as above
Calu-3 [9] = assay: drug sensitivity score (DSS) for viability; higher = more toxic; extreme values may be limits of the assay
U2OS [10] = assay: as above
Vero E6 [11] = assay: as above
HepG2 [12] = assay: as above
Caco-2 [13] = assay: as above
Calu-3 [14] = assay: relative viability EC50 (midpoint between 100% and the lowest measured viability); higher = less toxic
Vero E6 [15] = assay: as above

SMILES	relative viability EC50 (U2OS [1]) [µM]	relative viability EC50 (HepG2 [2]) [nM]	relative viability EC50 (Caco-2 [3]) [µM]	cell viability (Calu-3 [4]; 1 nM) [%]	cell viability (Calu-3 [4]; 10 nM) [%]	cell viability (Calu-3 [4]; 100 nM) [%]	cell viability (Calu-3 [4]; 1000 nM) [%]	cell viability (Calu-3 [4]; 10000 nM) [%]	cell viability (U2OS [5]; 1 nM) [%]	cell viability (U2OS [5]; 10 nM) [%]	cell viability (U2OS [5]; 100 nM) [%]	cell viability (U2OS [5]; 1000 nM) [%]	cell viability (U2OS [5]; 10000 nM) [%]	cell viability (Vero E6 [6]; 1 nM) [%]	cell viability (Vero E6 [6]; 10 nM) [%]	cell viability (Vero E6 [6]; 100 nM) [%]	cell viability (Vero E6 [6]; 1000 nM) [%]	cell viability (Vero E6 [6]; 10000 nM) [%]	cell viability (HepG2 [7]; 1 nM) [%]	cell viability (HepG2 [7]; 10 nM) [%]	cell viability (HepG2 [7]; 100 nM) [%]	cell viability (HepG2 [7]; 1000 nM) [%]	cell viability (HepG2 [7]; 10000 nM) [%]	cell viability (Caco-2 [8]; 1 nM) [%]	cell viability (Caco-2 [8]; 10 nM) [%]	cell viability (Caco-2 [8]; 100 nM) [%]	cell viability (Caco-2 [8]; 1000 nM) [%]	cell viability (Caco-2 [8]; 10000 nM) [%]	drug sensitivity score (Calu-3 [9])	drug sensitivity score (U2OS [10])	drug sensitivity score (Vero E6 [11])	drug sensitivity score (HepG2 [12])	drug sensitivity score (Caco-2 [13])	relative viability EC50 (Calu-3 [14]) [µM]	relative viability EC50 (Vero E6 [15]) [nM]
Cc1ccc2c(Br)cc(Br)c(OC(=O)c3ccccc3)c2n1 [broxaldine]	2.14	2530	2.44	103	99.8	87.6	97.4	66.5	98.2	102	98	92.7	42.4	109	108	109	98.3	54.8	111	95.5	116	93.7	19.6	84.9	100	84.9	93.8	29.2	2	4.3	2.5	5.4	4.9		
CC1=C(CCC(=O)O)c2cc3[nH]c(cc4nc(cc5[nH]c(cc1n2)c(C)c5C(C)O)C(C)=C4C(C)O)c(C)c3CCC(=O)O (centres undefined) [hematoporphyrin]	> 10	> 10000		97.8	89	87.2	94.5	88.1	100	96.7	102	93.6	94.5	106	106	98.8	104	80.3	103	99.9	91.3	99.1	79.2	109	96.3	96.6	105	74.1	0.6	0	0.4	0.8	0.8	> 10	> 10000
CNC(=O)CN1CCC(Oc2cc3c(Nc4cccc(Cl)c4F)ncnc3cc2OC)CC1 [AZD8931]	> 10	> 10000		109	80.5	60.7	33.8	22.5	95.4	94.8	93.6	89.6	87.9	97.2	97.7	78.3	58.5	42.1	106	95.7	87.8	95.2	85.2	96.5	93.7	90.2	77.7	65.5	18.2	0.1	10.2	0.5	4.6	0.0843	233
OCCn1cc(-c2ccc3c(c2)CC/C3=N\O)c(-c2ccncc2)n1 [GDC-0879]		1450	> 10	102	94.5	95.2	107	104											90.6	100	87.2	74.3	25	98.8	89.4	94.1	101	104	0			7	0	> 10	
CC(C)(O)CC(=O)NCCn1ccc2ncnc(Nc3ccc(Oc4cccc(C(F)(F)F)c4)c(Cl)c3)c21 [TAK-285]	> 10	> 10000		109	93.7	76.1	48.2	31	99.1	96.2	95	95.9	80.2	95.7	92.8	92.6	78.2	37.8	106	110	113	105	81.1	103	90.9	92.8	85	70	12.6	1	5.9	0.3	2.9	0.228	1410
CCc1nc(C(N)=O)c(Nc2ccc(N3CCC(N4CCN(C)CC4)CC3)c(OC)c2)nc1NC1CCOCC1 [gilteritinib]	2.12	1360		96.4	95.8	96.3	94.1	59.8	105	102	99.1	93.1	46	106	103	100	101	37.2	99.2	92.1	92.4	73.5	27.9	110	98.1	102	90.2	54.4	3	4.1	3.3	7	3.9		3250
Cc1cnc(NC(=O)Nc2cc(Br)c(C)cc2OC[C@@H]2CNCCO2)cn1	1.2	764	1.73	90.7	106	102	76.9	63	100	99.2	98	62.2	4.8	101	105	102	97.2	71.1	106	104	97.9	59.1	33.7	102	94.7	96.9	87.5	37.8	4.5	10.2	1.7	8.6	5.4		
CCN(CC)S(=O)(=O)c1ccc(C(=O)O)cc1 [etebenecid]		> 10000	> 10	110	93.9	106	95.2	111											109	110	98.4	112	101	99.7	110	107	92.5	108	0			0	0	> 10	
Cc1nc(C#Cc2ccnc(Cl)c2)c(C)n1-c1ccc(OC(F)(F)F)cc1 [CTEP]		> 10000		99.2	101	93	96.5	92.3	94.6	98.2	95.5	100	58.2	102	100	91.8	102	94.5	100	88.6	100	91.5	85.1	93.9	107	86.9	84.6	55.8	0	2.1	0	0.2	4	> 10	> 10000
FC(F)(F)Oc1ccc2nc(-c3ccc(OCCOCCOc4ccc(-c5nc6ccc(OC(F)(F)F)cc6[nH]5)nc4)cn3)[nH]c2c1 [AI-10-49]	> 10	1370		109	95.7	98.2	98.3	93.3	98.5	98.6	101	90.5	80.7	102	97	93.3	72.8	56.2	94.7	93.6	103	74.6	18.7	95.2	95.4	90.9	82	56.7	0	1.5	5.6	8.2	4.2	> 10	
Cc1cc(C2CCCCC2)n(O)c(=O)c1 [ciclopirox]		1760	1.31	108	109	94.3	95.7	44.8	105	95.2	101	87.9	52.1	94.6	100	90.1	89.6	63.4	91.8	96.4	95.9	85.9	27.2	99.9	90.1	96	77	38.7	3.6	4.4	2.7	6.3	6.1	2.52	
COc1ccc2c(c1)c(CC(=O)N1CCOCC1)c(C)n2C(=O)c1ccc(Cl)cc1 [BML-190]	> 10	> 10000	> 10	106	106	92.7	108	96.9	96.2	101	106	99.3	112						102	102	104	88	94.8	91.4	109	96.7	101	85.6	0	0		0.5	0.2	> 10	
C[C@H](N)C(=O)N[C@@]1(C(=O)O)C[C@@H](Sc2nnc[nH]2)[C@H]2[C@H](C(=O)O)[C@H]21	> 10	> 10000	> 10	102	92.6	96.1	114	110	105	96.9	105	100	104						101	94.7	99.6	110	91	108	100	103	98.9	101	0	0		0	0	> 10	
CCCCCCCC/C=C/C(=O)O [trans-2-undecenoic-acid]	> 10	> 10000	> 10	104	95.1	96.4	104	108	101	97	102	100	99.5						106	104	101	105	95.8	109	105	108	93.5	98.9	0	0		0	0	> 10	
COCCOc1cnc2ccn([C@H](C)c3nnc4c(F)cc(-c5cnn(C)c5)cn34)c(=O)c2c1 [AMG-337]	> 10	> 10000	> 10	101	89	98.4	114	95.2	93	99.1	102	98	100						100	102	99.2	91.5	93.5	104	103	92.9	101	97.2	0	0		0	0	> 10	
